Results from patent US9040715B2 (priority 2008, dated 2015).
Converted amounts (≈) assume the structure as drawn.

Columns and labels:
[1] = tested on: Saccharomyces cerevisiae (YPH501); test: Anti-fungal/anti-yeast activity: MIC50 (broth microdilution) and MFC; type: cell-based
[2] = tested on: Huh7 cells; test: Neutral red uptake assay (cytotoxicity); type: cell-based, human
Text: The neutral red uptake assay is a cytotoxicity test that is based on the ability of viable cells to incorporate and bind the supra-vital dye neutral red in the lysosomes. This weakly cationic dye penetrates cell membranes by non-ionic passive diffusion and concentrates in the lysosomes, where it binds by electrostatic hydrophobic bonds to anionic and phosphate groups of the lysosomal matrix. The dye is then extracted from the viable cells using an acidified ethanol solution, and the absorbance of the solubilized dye is read. When the cell dies or the pH gradient is reduced, the dye is not retained and consequently, the amount of retained dye is proportional to the number of viable cells. Most primary cells and cell lines can be used for this method. The HepG2 and Huh7, two human hepatoma cell lines, were used for this study. The cells were seeded in 96-well tissue culture plates and treated for 48 hours with the compounds. The plates were then incubated for 2 hours with a medium containing neutral red. The cells were subsequently washed, the dye was extracted in each well, and the absorbance was read using a spectrophotometer (FIG. 3 and Table 11).

[3] = tested on: Fluconazole Resistant C. albicans; test: microbe, parasite or virus in culture; type: cell-based; conditions: Candida albicans
Protocol: (§1) The minimum inhibitory concentrations resulting in 50% growth inhibition (MIC50) of […] Candida species (C. albicans, C. tropicalis and C. glabrata, C. lusitaniae, C. parapsilosis, and C. apicola) as well as Aspergillus fumigatus to a set of novel synthetic compounds was determined in accordance with the guidelines in CLSI document M27-A2 (Clinical and Laboratory Standards Institute; Wayne, Pa.). The total volume of cells and drug was 100 μL per microtiter well, and each drug was diluted in RPMI to achieve final concentrations of 0.2-100 μg/ml. Uninoculated cultures were used as a reference standard. Stock inoculum suspensions were prepared from 24 hour cultures on YPD (yeast extract/peptone/dextrose) media at 30° C. For MIC determinations, an inoculum of 1.0×10^3 cells of Candidia and 2.0×10^3 cells of Aspergillus per well were used, and cells in diluted drugs were prepared in RPMI-1640 medium. MICs were determined both visually and spectrophotometrically at 24 hours and 48 h at 550 nm using a micro plate reader. The MIC50 endpoint was measured as the lowest drug concentration resulting in a reduction of growth of 50% or more compared with growth of the control.
(§2) The MIC50 of Compounds I-1, I-2, and I-5 in several mutant strains of Candida albicans, including fluconazole resistant clinical strains, was determined according to the methods described in Example 1 (see Table 9). The activity of Compound I-1 against fluconazole resistant strains was further explored (see Table 10). In Table 10, Strain #1 is a fluconazole sensitive Candida albicans strain; Strain #17 is a fluconazole resistant Candida albicans strain; C. albicans CS#01 is a first clinical strain; C. albicans CS#02 is a second clinical strain.

[4] = tested on: Candidia parapsilosis; test: Anti-fungal/anti-yeast activity: MIC50 (broth microdilution) and MFC; type: cell-based
Protocol: (§3) Fluconazole, an ergosterol inhibitor, and the beta-1,3-glucan inhibitor micafungin served as controls (See Tables 1-8).
as §1
(§4) The minimum fungicidal concentrations (MFCs) were determined for each drug-isolate-medium combination as follows. After 48 hours of incubation, 100 μL of each drug-isolate-medium combination (2 plates) was subcultured onto YPD plates (100 μL of solution was spread over the YPD plate). […] The plates were then incubated at 30° C. for 48 hours.
(§5) The in vitro fungicidal activities (MFCs) were determined for each drug-isolate-medium combination as follows. After 48 hours of incubation, 10 μL each drug-isolate-medium combination was spotted onto YPD plates (10 μL of each well is spotted sequentially with positive and negative control wells). […] The plates were then incubated at 30° C. for 48 hours.

[5] = tested on: Aspergillus fumigatus; test: as above; type: cell-based
Protocol: as §3, §1, §4, §5

[6] = tested on: Candida tropicalis; test: as above; type: cell-based
Protocol: as §3, §1, §4, §5

[7] = tested on: Candida glabrata; test: as above; type: cell-based
Protocol: as §3, §1, §4, §5

[8] = tested on: Candida albicans (CAF-2); test: as above; type: cell-based
Protocol: as §3, §1, §4, §5

[9] = tested on: Candida apicola; test: as above; type: cell-based
Protocol: as §3, §1, §4, §5

[10] = tested on: Candida lusitaniae; test: as above; type: cell-based
Protocol: as §3, §1, §4, §5

[11] = tested on: Huh7 or HepG2 cell line; test: MTT assay (cytotoxicity); type: cell-based, human; conditions: 24 hours and 48 hours
Protocol: The MTT assay is a colorimetric assay that measures the reduction of yellow 3-(4,5-dimethylhiazol-2-yl)-2,5-diphenyl tetrazolium bromide (MTT) by mitochondrial succinate dehydrogenase. The MTT enters the cells and passes into the mitochondria where it is reduced to an insoluble, dark purple, formazan product. The cells are then solubilized with an organic solvent (e.g., isopropanol) and the released, solubilized formazan reagent is measured spectrophotometrically. Since reduction of MTT can only occur in metabolically active cells, the level of activity is a measure of the viability of the cells.
Cells of the Huh7 or HepG2 cell line were seeded in a 96 well plate. The plate was incubated overnight at 37° C. in a humidified incubator, 5% CO2. The test compounds were added to the plate. Different concentrations of drug were tested in triplicate along with a negative control. The final volume was adjusted to 100 μl per well. The plate was incubated overnight at 37° C. in a humidified incubator, 5% CO2. After 24 hours and 48 hours, MTT reagent (5 mg/ml, 10 μl/100 μl per well of the 96 well plate) was added and incubated at 37° C. for 3 hours. After 3 hours, 100 μl of the DMSO solution was added to each well and the plate was rocked at room temperature for 1 hour. The plate was then read on a plate reader at […].

[12] = tested on: C. albicans Mutants; test: MIC50 in C. albicans mutant strains; type: cell-based; conditions: Candida albicans
Protocol: as §1, §2

[13] = Saccharomyces cerevisiae (YPH501)

SMILES: CN(Cc1ccccc1)C(=O)Cn1sc2ccccc2c1=O [Compound I-1]
- MFC ([1]; Saccharomyces cerevisiae): 3.2 µg/mL (≈ 10.2 µM)
- Activity (fungicidal/fungistatic) [1, 13]: fungicidal (An MFC/MIC ratio of less than four indicates that the compound is fungicidal)
- Ratio MFC/MIC [1, 13]: 2
- MIC ([1]; Saccharomyces cerevisiae, read-out: MIC-50): 1.6 µg/mL (≈ 5.12 µM)
- Percentage Viability ([2]; 3.3 μg/mL (approx 1X MIC)): >100%
- Percentage Viability ([2]; 10 μg/mL (approx 3X MIC)): >100%
- Percentage Viability ([2]; 33 μg/mL (approx 10X MIC)): >100%
- Percentage Viability ([2]; 100 μg/mL (approx 30X MIC)): 83%
- MIC50 ([3]; C. albicans CS#01, first clinical strain): 3 µg/mL (≈ 9.6 µM)
- MIC50 ([3]; C. albicans CS#02, second clinical strain): 3 µg/mL (≈ 9.6 µM)
- MIC50 ([3]; Strain #1, fluconazole sensitive Candida albicans strain): 3 µg/mL (≈ 9.6 µM)
- MIC50 ([3]; Strain #17, fluconazole resistant Candida albicans strain): 6 µg/mL (≈ 19.2 µM)
- MFC [4]: 3.2 µg/mL
- Activity (fungicidal/fungistatic) ([4]; Candidia parapsilosis): fungicidal (An MFC/MIC ratio of less than four indicates that the compound is fungicidal)
- Ratio MFC/MIC ([4]; Candidia parapsilosis): 1
- MIC ([4]; read-out: MIC-50): 3.2 µg/mL
- Activity (fungicidal/fungistatic) [5]: fungistatic (an MFC/MIC ratio of greater than four indicates that the compound is fungistatic)
- MFC [5]: 100 µg/mL
- MIC50 [5]: 25 µg/mL
- Ratio MFC/MIC [5]: 4
- Activity (fungicidal/fungistatic) [6]: fungicidal (An MFC/MIC ratio of less than four indicates that the compound is fungicidal)
- MFC [6]: 3.2 µg/mL
- Ratio MFC/MIC [6]: 1
- MIC ([6]; read-out: MIC-50): 3.2 µg/mL
- Activity (fungicidal/fungistatic) ([7]; Candida glabrata): fungicidal (An MFC/MIC ratio of less than four indicates that the compound is fungicidal)
- Ratio MFC/MIC ([7]; Candida glabrata): 2
- MFC ([7]; Nakaseomyces glabratus): 12.5 µg/mL
- MIC ([7]; Nakaseomyces glabratus, read-out: MIC-50): 6.2 µg/mL
- Activity (fungicidal/fungistatic) [8]: fungicidal (An MFC/MIC ratio of less than four indicates that the compound is fungicidal)
- MFC [8]: 6 µg/mL
- Ratio MFC/MIC [8]: 2
- MIC ([8]; read-out: MIC-50): 3.2 µg/mL
- Activity (fungicidal/fungistatic) ([9]; Candida apicola): fungicidal (An MFC/MIC ratio of less than four indicates that the compound is fungicidal)
- MIC-50 ([9]; Candida apicola): 3.2 µg/mL
- Ratio MFC/MIC ([9]; Candida apicola): 1
- MFC ([9]; Starmerella apicola): 3.2 µg/mL
- Activity (fungicidal/fungistatic) ([10]; Candida lusitaniae): fungicidal (An MFC/MIC ratio of less than four indicates that the compound is fungicidal)
- Ratio MFC/MIC ([10]; Candida lusitaniae): 1
- MFC ([10]; Clavispora lusitaniae): 3.2 µg/mL
- MIC ([10]; Clavispora lusitaniae, read-out: MIC-50): 3.2 µg/mL
- Toxicity to mammalian cell lines (MTT assay) [11]: minimally toxic
- MIC50 ([12]; C. albicans strain CAF-2): 3 µg/mL (≈ 9.6 µM)
- MIC50 ([12]; C. albicans strain CHK11): 3 µg/mL (≈ 9.6 µM)
- MIC50 ([12]; C. albicans strain CHK21): 3 µg/mL (≈ 9.6 µM)
- MIC50 ([12]; C. albicans strain CHK23): 3 µg/mL (≈ 9.6 µM)
- MIC50 ([12]; C. albicans strain GOA31): 6 µg/mL (≈ 19.2 µM)
- MIC50 ([12]; C. albicans strain GOA32): 3 µg/mL (≈ 9.6 µM)
